For 29 compounds, melting point results are on record in patent publication US20070105840A1, “Pyrrolo-dihydroisoquinoline derivatives as pde10 inhibitors” (Altana Pharma AG, priority 2003, published 2007).

The compound `COc1cc2c(cc1OC)-c1c(C#N)c(-c3ccnc4ccccc34)c(C)n1CC2` [Example 23, 8,9-Dimethoxy-3-methyl-2-quinolin-4yl-5,6-dihydro-pyrrolo[2,1-a]isoquinoline-1-carbonitrile] registered a melting point of 239 to 243 °C.

`COc1cc2c(cc1OC)-c1c(C#N)c(-c3c[nH]c4ccccc34)c(C)n1CC2` [Example 24, 2-(1H-indol-3-yl)-8,9-dimethoxy-3-methyl-5,6-dihydro-pyrrolo[2,1-a]isoquinoline-1-carbonitrile] had a melting point of 304 to 307 °C. `COc1cc2c(cc1OC)-c1c(C#N)c(-c3cc(C(C)(C)C)c(O)c(C(C)(C)C)c3)c(C)n1CC2` [Example 25, 2-(3,5-Di-tert-butyl-4-hydroxy-phenyl)-8,9-dimethoxy-3-methyl-5,6-dihydro-pyrrolo[2,1-a]isoquinoline-1-carbonitrile] returned a melting point of 250 to 252 °C. In turn, `COc1cc2c(cc1OC)-c1c(C#N)c(-c3ccncc3)c(C)n1C(C)C2` (centres unmarked) [Example 26, 8,9-Dimethoxy-3,5-dimethyl-2-pyridin-4-5,6-dihydro-pyrrolo[2,1-a]isoquinoline-1-carbonitrile] returned a melting point of 253 to 254 °C.

`COC(=O)CCc1c(-c2cc(C)c(O)c(C)c2)c(C#N)c2n1C(C)Cc1cc(OC)c(OC)cc1-2` (centres unmarked) [Example 27, 3-[1-Cyano-2-(4-hydroxy-3,5-dimethyl)-8,9-dimethoxy-5-methyl-5,6-dihydro-pyrrolo[2,1-a]isoquinolin-3-yl]-propionic acid methyl ester] showed a melting point of 208 to 209 °C. To `COc1cc2c(cc1OC)-c1c(C#N)c(-c3cc(C)c(O)c(C)c3)c(C)n1C(C)C2` (centres unmarked) [Example 28, 2-(4-Hydroxy-3,5-dimethyl-phenyl)-8,9-dimethoxy-3,5-dimethy-5,6-dihydro-pyrrolo[2,1-a]isoquinoline-1-carbonitrile] belongs 268 to 270 °C; to `COC(=O)CCc1c(-c2ccncc2)c(C#N)c2n1CCc1cc(OC)c(OC)cc1-2` [Example 29, 3-(1-Cyano-8,9-dimethoxy-2-pyridin-4-yl-5,6-dihydro-pyrrolo[2,1-a]isoquinolin-3-yl)-propionic acid methyl ester], 191 to 193 °C. As for `COc1cc2c(c(F)c1OC)CC(C)n1c(C)c(-c3cc(C)c(O)c(C)c3)c(C#N)c1-2` (centres unmarked) [Example 30, 7-Fluoro-2-(4-hydroxy-3,5-dimethyl-phenyl)-8,9-dimethoxy-3,5-dimethyl-5,6-dihydro-pyrrolo[2,1-a]isoquinoline-1-carbonitrile], the melting point fell in the range of 166 to 168 °C. `COC(=O)CCc1c(-c2ccnc3ccccc23)c(C#N)c2n1CCc1cc(OC)c(OC)cc1-2` [Example 31, 3-(1-Cyano-8,9-dimethoxy-2-quinolin-4-yl-5,6dihydro-pyrrolo[2,1-a]isoquinolin-3-yl)-propionic acid methyl ester] gave a melting point of 232 to 234 °C. `COC(=O)CCc1c(-c2cc(C)c(O)c(C)c2)c(C#N)c2n1CCc1cc(OC)c(OC)cc1-2` [Example 32, 3-[1-Cyano-2-(4-hydroxy-3,5-dimethyl-phenyl)-8,9-dimethoxy-5,6-dihydro-pyrrolo[2,1-a]isoquinolin-3-yl]-propionic acid methyl ester]: the melting point is 217 to 219 °C.

`COc1cc2c(cc1OC)-c1c(C#N)c(-c3cn(S(C)(=O)=O)c4ccccc34)c(C)n1C(C)C2` (centres unmarked) [Example 40, 2-(1-Methanesulfonyl-1H-indol-3-yl)-8,9-dimethoxy-3,5-dimethyl-5,6-dihydro-pyrrolo[2,1-a]isoquinoline-1-carbonitrile] displayed a melting point of 219 to 221 °C. Take `COc1cc2c(cc1OC)-c1c(C#N)c(-c3cc[n+]([O-])cc3)c(C)n1C(C)C2` (centres unmarked) [Example 41, 8,9-Dimethoxy-3,5-dimethyl-2-(1-oxy-pyridin-4-yl)-5,6-dihydro-pyrolo[2,1-a]isoquinoline-1-carbonitrile]: the melting point fell in the range of 279 to 282 °C. `COc1cc2c(cc1OC)-c1c(C#N)c(-c3cc(C)c(O)c(C)c3)c(CN3CCOCC3)n1C(C)C2` (centres unmarked) [Example 44, 2-(4-Hydroxy-3,5-dimethyl-phenyl)-8,9-dimethoxy-5-methyl-3-morpholin-4-ylmethyl-5,6-dihydro-pyrrolo[2,1-a]isoquinoline-1-carbonitrile]: the melting point was in the range of 228 to 230 °C. `COc1cc2c(cc1OC)-c1c(C#N)c(-c3ccnc(C)c3)c(C)n1C(C)C2` (centres unmarked) [Example 45] yielded a melting point of 187 to 189 °C.

Turning to `COc1cc2c(cc1OC)-c1c(C#N)c(-c3ccc([N+](=O)[O-])cc3)c(C)n1C(C)C2` (centres unmarked) [Example 46, 8,9-Dimethoxy-3,5-dimethyl-2-(4-nitro-phenyl)-5,6-dihydro-pyrrolo[2,1-a]isoquinoline-1-carbonitrile], the melting point is 206 to 207 °C. The compound `COc1cc2c(cc1OC)-c1c(C#N)c(-c3ccc(C(=O)O)cc3)c(C)n1C(C)C2` (centres unmarked) [Example 47, 4-(1-Cyano-8,9-dimethoxy-3,5-dimethyl-5,6-dihydro-pyrrolo[2,1-a]isoquinolin-2-yl)-benzoic acid] yielded a melting point of 287 to 289 °C. Compound `COc1cc2c(cc1OC)-c1c(C#N)c(-c3ccc(N)cc3)c(C)n1C(C)C2` (centres unmarked) [Example 48, 2-(4-Amino-phenyl)-8,9-dimethoxy-3,5-dimethyl-5,6-dihydm-pyrrolo[2,1-a]isoquinoline-1-carbonitrile] returned a melting point of 237 to 239 °C. As for `COc1cc2c(cc1OC)-c1c(C#N)c(-c3ccncc3C)c(C)n1C(C)C2` (centres unmarked) [Example 49, 8,9-Dimethoxy-3,5-dimethyl-2-(3-methyl-pyridin-4-yl)-5,6-dihydro-pyrrolo[2,1-a]isoquinoline-1-carbonitrile], the melting point lay in the range of 232 to 233 °C. For the compound `CCOc1cc2c(cc1OC)-c1c(C#N)c(-c3ccc(C(=O)O)cc3)c(C)n1C(C)C2` (centres unmarked) [Example 50, 4-(1-Cyano-8-ethoxy-9-methoxy-3,5-dimethyl-5,6-dihydro-pyrrolo[2,1-a]isoquinolin-2-yl)-benzoic acid], the melting point was in the range of 274 to 277 °C.

Compound `COc1cc2c(cc1OC)-c1c(C#N)c(-c3ccc(O)cc3C)c(C)n1C(C)C2` (centres unmarked) [Example 51, 2-(4-Hydroxy-2-methyl-phenyl)-8,9-dimethoxy-3,5-dimethyl-5,6-dihydro-pyrrolo[2,1-a]isoquinoline-1-carbonitrile] yielded a melting point of 228 to 230 °C. Take `COc1cc2c(cc1OC)-c1c(C#N)c(-c3ccc(C(N)=O)cc3)c(C)n1C(C)C2` (centres unmarked) [Example 52, 4-(1-Cyano-8,9-dimethoxy-3,5-dimethyl-5,6-dihydro-pyrrolo[2,1-a]isoquinolin-2-yl)-benzamide]: the melting point is 228 to 230 °C. The same measure for `CCOc1cc2c(cc1OC)-c1c(C#N)c(-c3cc(C)c(O)c(C)c3)c(C)n1C(C)C2` (centres unmarked) [Example 53, 8-Ethoxy-2-(4-hydroxy-3,5-dimethyl-phenyl)-9-methoxy-3,5-dimethyl-5,6-dihydro-pyrrolo[2,1-a]isoquinoline-1-carbonitrile]: 232 to 234 °C; for `COc1cc2c(cc1OC)-c1c(C#N)c(-c3cn(S(=O)(=O)N(C)C)c4ccccc34)c(C)n1C(C)C2` (centres unmarked) [Example 54, 3-(1-Cyano-8,9-dimethoxy-3,5-dimethyl-5,6-dihydro-pyrrolo[2,1-a]isoquinolin-2-yl)-indole-1-sulfonic acid dimethylamide]: 236 to 237 °C; for `COc1cc2c(cc1OC)-c1c(C#N)c(-c3ccc(-c4nn[nH]n4)cc3)c(C)n1C(C)C2` (centres unmarked) [Example 57, 8,9-Dimethoxy-3,5-dimethyl-2-[4-(2H-tetrazol-5-yl)-phenyl]-5,6-dihydro-pyrrolo[2,1-a]isoquinoline-1-carbonitrile]: 204 to 207 °C. In the case of `COc1cc2c(cc1OC)-c1c(C#N)c(-c3ccc(NS(=O)(=O)N4CCOCC4)cc3)c(C)n1C(C)C2` (centres unmarked) [Example 58, Morpholine-4-sulfonic acid [4-(1-cyano-8,9-dimethoxy-3,5-dimethyl-5,6-dihydro-pyrrolo[2,1-a]isoquinolin-2-yl)-phenyl]-amide], the melting point lay within 223 to 225 °C. In the case of `COc1cc2c(cc1OC)-c1c(C#N)c(-c3ccc(NS(C)(=O)=O)cc3)c(C)n1C(C)C2` (centres unmarked) [Example 59, N-[4-(1-Cyano-8,9-dimethoxy-3,5-dimethyl-5,6-dihydro-pyrrolo[2,1-a]isoquinolin-2-yl)-phenyl]-methanesulfonamide], the melting point fell in the range of 257 to 259 °C. Compound `COC(=O)c1c(-c2cc(C)c(O)c(C)c2)c(C)n2c1-c1cc(OC)c(OC)cc1CC2C` (centres unmarked) [Example 65, 2-(4-Hydroxy-3,5-dimethyl-phenyl)-8,9-dimethoxy-3,5-dimethyl-5,6-dihydro-pyrrolo[2,1-a]isoquinoline-1-carboxylic acid methyl ester] displayed a melting point of 177 to 179 °C. The compound `COC(=O)c1c(-c2cn(S(=O)(=O)c3ccc(C)cc3)c3ccccc23)c(C)n2c1-c1cc(OC)c(OC)cc1CC2C` (centres unmarked) [Example 66, 8,9-Dimethoxy-3,5-dimethyl-2-[1-(toluene-4-sulfonyl)-1H-indol-3-yl]-5,6-dihydro-pyrrolo[2,1-a]isoquinoline-1-carboxylic acid methyl ester] registered a melting point of 177 to 179 °C.

Compound `COc1cc2c(cc1OC)-c1c(C)c(-c3cc(C)c(O)c(C)c3)c(C)n1CC2` [Example 68, 4-(8,9-Dimethoxy-1,3-dimethyl-5,6-dihydro-pyrrolo[2,1-a]isoquinolin-2-yl)-2,6-dimethyl-phenol] had a melting point of 183 to 185 °C.
